Holding throughout (type): cell-based, murine
Assay [1] concerns HC e/n XVB cells. Description: Electrophysiology: whole-cell patch-clamp, ligand-activated currents. As to conditions: for ligand-activated currents: membrane potential clamped to -70mV; for ligand induced inward currents: differentiated HC e/n XVB cells, AMPA 100µM, NMDA, kainate, glutamate 1mM. As to the method: (§1) Electrophysiological setup: Membrane currents were measured with the patch-clamp technique in the whole-cell recording configuration (Hamill et al. 1981, Pfluegers Arch. 391:85-100). Current signals were amplified with conventional electronics (EPC-9 amplifier, HEKA Elektronik GmbH, Lambrecht, Germany), filtered at 10kHz, and sampled at 5 kHz by an interface connected to an IBM AT-compatible computer system, which also served as a stimulus generator.
(§2) Solutions and electrodes: The standard bathing solution contained (in mM): Nacl 150, KCL 5, MgCl2 1.8, HEPES 5, and glucose 10. In some experiments an equimolar amount of NaCl was replaced by 5mM BaCl2. Recording pipettes had resistances about 5MΩ (Hilgenberg, Malsfeld, Germany). The pipettes contained (in mM): KCL 140, CaCl2 0.5, EGTA 5, MgCl2 2, and HEPES 10. The pH was adjusted to 7.4. In some experiments the pipette solution was designed to minimize the contribution of voltage-activated currents. In this case, investigating the ligand-activated currents, the pipette solution contained (in mM): CsCl 140, EGTA 10, and HEPES 10.
(§3) Ligands were dissolved in the extracellular saline solution and applied via an U-tube application system. To record ligand-induced currents, the membrane potential was clamped to -70mV. For measurements of voltage-activated currents, cells were held at -70mV and every second the membrane was stepped through a 50 msec. de- or hyperpolarising test pulse to a potential between -170 and +20 mV.

In assay [2] the test system is HNMMCV13.1.E. Briefly: Ca2+-imaging (Fura-2), rise in intracellular calcium. As to conditions: HNMMCV13.1.E; glutamate 10µM to 10 mM, AMPA, kainic acid, serotonine, dopamine, carbachol up to 1mM, NMDA up to 500µM. As to the method:
(§4) Fluorescent Probe: Dynamic changes of intracellular calcium concentration were measured using the Fura-2 fluorescent probe (Roe et al. 1990, Cell Calcium 11:63-73). This fluorescent dye was chosen because of its selectivity, high quantum yield and extinction co-efficient. Fura-2 permeates the living cell as a acetoxymethylester and becomes trapped within the cell after hydrolysis by intracellular esterases. The calcium-sensitive free acid of Fura-2 is able to bind to calcium ions inside the cell. Fura-2 has an excitation maximum at 380 nm and the Fura2/calcium complex peaks at 340 nm. A change in intracellular calcium concentration was calculated by recording fluorescent video images at wavelengths of 340nm and 380nm excitation and 510nm emission and by dividing the grey values of the digitized video images of 380nm from 340nm.
(§5) Loading cells with Fura-2: A stock solution with 2mM Fura-2-acetoxymethylester in dimethylsulfoxide (DMSO) was diluted to 5-10 µM with serum free Minimal Essential Medium (MEM, Gibco) containing 1.5% bovine serum albumin and 5 mM calcium chloride. The cells were incubated in a Falcon 96 well plate for 45-60 minutes at 37°C. Subsequently the cells were washed twice in N-(2-Hydroxyethyl)piperazine-N'-(2-ethanesulfonic acid) (HEPES, 5mM) buffered Tyrode solution (HEPES buffered salt solution containing 130 mM NaCl, 5 mM KCl, 2 mM CaCl2, 1 mM MgCl2, 5mM NaHCO3, 11 mM Glucose).
(§6) Imaging procedure: 100 µl of Tyrode buffer was added to the plate wells and the cells were sequencially exposed to light at 340 nm and 380 nm under a fluorescent microscope (Nikon Diaphot). The exposition time was 100 ms. A series of video images at 3 second intervals was acquired and stored as digitised pictures in the image boards of an image analysis computer (Leica, Quantimet 570). After the acquisition of 8 images the test substances were applied. The grey levels of the cells, which correspond to the fluorescence intensity, were measured in the recorded video images. The ratio was determined by dividing the measured grey levels of the "380 nm images" by the grey levels of the "340 nm images" either from averaged images or from individual cells. For averaged results, the grey levels were measured over the whole images.
(§7) The cells were loaded with Fura 2/AM between day 3 and 7 in culture. A number of agonists were tested for their ability to activate specific receptors on the cell surface which leads to a rise in intracellular calcium. The rise in calcium concentration in the cytoplasm can occur after activation of specific calcium channels in the cell membrane, after activation of neurotransmitter receptors directly coupled to ion channels that are permeable to calcium ions (i.e. NMDA or AMPA type glutamate receptors), or by activation of receptors, which propagate the signal through the activation of specific G-proteins, which regulate the activity of different enzymes in the interior of the cell (Connor, Cell Calcium 14 (1993), 185-200; Crouch and Hendry, Medical Res. Rev. 13 (1993), 105-123). The activation of phospholipase C generates the second messengers diacylglycerol and inositoltriphosphate from phospholipids in the cell membrane. The binding of inositoltriphosphate to receptors localised on internal vesicles which store calcium ions leads to a transient rise in the concentration of calcium ions in the cytoplasm (Berridge, M.J. 1993, Nature 361: 315-325).
(In general: Calcium assays in cells follow changes in intracellular calcium, usually with a dye or a luminescent sensor.)

The subject of assay [3] is HNMMCV11.2.0. The description is as above. The settings on record: HNMMCV11.2.0; glutamate 10µM to 10 mM, AMPA, kainic acid, serotonine, dopamine, carbachol up to 1mM, NMDA up to 500µM. How it is done:
as §4, §5, §6, §7

Assay [4] relates to HNMMCV14.1.A. Described as above. As to conditions: HNMMCV14.1.A; glutamate 10µM to 10 mM, AMPA, kainic acid, serotonine, dopamine, carbachol up to 1mM, NMDA up to 500µM. As to the method:
as §4, §5, §6, §7

Assay [5] concerns HC e/n XV.B cells. The description is as above. As to the method: as §4, §5, §6, §7
Assay [6] deals with HNMMCV13.1.F. The description is as above. The settings on record: for transient rise in intracellular calcium concentration: HNMMCV13.1.F, glutamate 10µM to 10 mM, AMPA, kainic acid, serotonine, dopamine, carbachol up to 1mM, NMDA up to 500µM. As to the method: as §4, §5, §6, §7
Assay [7] relates to HNMMCV14.1.A. Briefly: Electrophysiology: whole-cell patch-clamp, ligand-activated currents. The settings on record: 14.1.A; membrane potential clamped to -70mV. As to the method: as §1, §2, §3
On the technique in general: In patch-clamp work, channel activity is measured electrically.

Assay [8] concerns metabotropic glutamate receptor(s) (mGluR) expressed by HNMMCV14.1A cells. Description: Second messenger: phosphoinositide hydrolysis, accumulation of 3H-inositol phosphates. How it is done: Phosphoinositide hydrolysis was determined by measuring the accumulation of ^3H-inositol phosphates. The cells were plated in 48-well plates (Costar) at a density of 10000 cells per well and incubated for 4-5 days at 37°C, 7% CO2. Then the cells were labeled by incubation with 4 µCi of myo-2-^3H-inositol per ml medium (specific activity: […]: Amersham). After 24 h LiCl (10 mM final concentration) was added to the cells for 1 h. Agonists were then added at the concentrations indicated. The incubation was stopped after 1 h by replacing the medium with 200 µl ice-cold methanol. 400 µl of destilled water was added and the sample was directly applied to AG-1X8 ion exchange columns (AG-1X8 resin: BioRad). Free inositol and glycerophosphoryl-inositol were washed away with 16 ml destilled water followed by 10 ml 5 mM disodium-tetraborate, 60 mM sodium formate. Total ^3H-inositol phosphates (IP1, IP2, IP3) were eluted with 7 ml of 100 mM formic acid, 1 M ammonium formate. Radioactivity of the eluted ^3H-inositol phosphates was determined by liquid scintillation counting after addition of 13 ml liquid scintillation cocktail (Ultima Gold: Canberra Packard). Measurements were performed in triplicates for each experimental point. Untreated controls were set as 100% and the other values calculated in relation to this.
The columns were prepared as follows: 1 ml pipet tips were filled with one glass bead (Roth) per tip before adding 500 µl AG-1X8 resin. The resin was compressed with air and 270 µl seasand was applied. Until use they were stored at 4°C.

Where [9] appears, read: HC e/n XV.B cells, state of differentiation not given, up to 1mM.
Setting [10] is: differentiated HC e/n XV.B cells.
The mark [11] stands for this setting: HNMMCV14.1A cells, result in words.

SMILES strings stand for the structures. Where two headings read alike, the source gives them in different places.

The text below walks through data of EP0773292A1, “Immortalised embryonic hippocampal cells and their use” (BAYER AG, priority 1995, dated 1997).

Consider `Cc1onc(O)c1CC(N)C(=O)O` (stereo not shown) [AMPA, ∝-amino-3-hydroxy-5-methyl-4-isoxazol-propionic acid], for which the ligand-activated currents result in assay [1] (XV. B/ - EGF (differentiated)) is given as “+ (+: 10-30% positive cells)”. Further, in assay [1], the “ligand induced inward currents” value is on record as “evoked responses with different peak amplitudes”. The “transient rise in intracellular calcium concentration” value in assay [2] is “did not result in a transient rise in intracellular calcium concentrations”; in assay [3] it was “did not result in a transient rise in intracellular calcium concentrations”; in assay [4] it was “did not result in a transient rise in intracellular calcium concentrations”; in assay [5] (undifferentiated HC e/n XV.B cells, AMPA, kainate up to 1mM, NMDA up to 500µM) it was “did not result in a transient rise in intracellular calcium concentrations”; in assay [6] it was “did not result in a transient rise in intracellular calcium concentrations”.
`CC(=O)OCC[N+](C)(C)C` [Acetylcholine, acetylcholine]: the ligand-activated currents result in assay [7] is given as “+ (+: 10-30% positive cells)”; in assay [1] (XV. B/ - EGF (differentiated)), “-”.
Regarding `N#Cc1cc2[nH]c(=O)c(=O)[nH]c2cc1[N+](=O)[O-]` [CNQX, 6-nitro-7-cyanochinoxalin-2,3-dione], the “antagonism of the calcium signals recorded after application of glutamate” value in assay [6] (glutamate 100µM, CNQX 100µM, cell clone taken from Table 5 (13.1.F)) was “not antagonised”.
With `C[N+](C)(C)CCOC(N)=O` [Carbachol], the “transient rise in intracellular calcium concentration” value in assay [2] is reported as “not in any other cell line tested”; in assay [3], “not in any other cell line tested”; in assay [5] (setting [9]), “reproducible signal”; in assay [6], “not in any other cell line tested”.
`NCCc1ccc(O)c(O)c1` [Dopamine, dopamine]: the “transient rise in intracellular calcium concentration” value in assay [2], in assay [3], in assay [4], in assay [5] (setting [9]) and in assay [6] was “did not lead to a specific signal” each time.
With `NCCCC(=O)O` [GABA], the ligand-activated currents entry in assay [7] was “++ (++: 30-70% positive cells)”; in assay [1] (XV. B (with EGF, undifferentiated)), “+ (+: 10-30% positive cells)”; in assay [1] (XV. B/ - EGF (differentiated)), “+++ (+++: 70-100% positive cells)”. Further, in assay [1] (HC e/n XVB cells, membrane stepped from -100 to +40), the “reversal potential of the ligand-activated current” value was “~+10 mV”. The “ligand induced inward currents” value in assay [1] is listed as “prominent resonses”.
For the molecule `N[C@H](C(=O)O)[C@H]1C[C@@H]1C(=O)O` [L-CCG 1, L-carboxycyclopropylglycin], the “transient rise in intracellular calcium concentration” value is recorded as “strong” in assay [2]; “strong” in assay [3]; “strong” in assay [4]; “weak signals” in assay [5] (setting [10]); “strong” in assay [6].
In the case of `CN[C@H](CC(=O)O)C(=O)O` [NMDA, N-methyl-D-aspartate], in assay [1] (XV. B/ - EGF (differentiated)), the ligand-activated currents entry is on record as “++ (++: 30-70% positive cells)”.
As to `N[C@@H](Cn1oc(=O)[nH]c1=O)C(=O)O` [Quisqualate, quisqualate], in assay [8] (HNMMCV14.1A cells), the “maximum responses (inositolphosphate accumulation) compared with glutamate” value (“maximum responses … compared with glutamate” below) is “slightly weaker”. In addition, the “effect on inositolphosphate accumulation” value in assay [8] (setting [11]) is “concentration dependent increase”.
For the molecule `NCCc1c[nH]c2ccc(O)cc12` [Serotonine], the “transient rise in intracellular calcium concentration” value in assay [2], in assay [3], in assay [4], in assay [5] (setting [9]) and in assay [6] was “did not lead to a specific signal” throughout.
Take `NC(C(=O)O)c1cc(O)no1` (stereo not shown) [ibotenate]: in assay [8], the “effect on inositolphosphate accumulation” value is listed as “concentration dependent increase” and the “maximum responses … compared with glutamate” value was “slightly weaker”.
Consider `N[C@@]1(C(=O)O)CC[C@@H](C(=O)O)C1` [t-ACPD, 1S3R-aminocyclopentane-1,3-dicarboxylate], for which the “maximum responses … compared with glutamate” value in assay [8] (HNMMCV14.1A cells) is listed as “slightly weaker”. Further, the “effect on inositolphosphate accumulation” value in assay [8] (setting [11]) is reported as “concentration dependent increase”. Further, the “transient rise in intracellular calcium concentration” value is “strong” in assay [2]; “strong” in assay [3]; “strong” in assay [4]; “weak signals” in assay [5] (setting [10]); “strong” in assay [6].
